Common to all, as to test: combination Emax (second highest fraction inhibited in the dose matrix, 72 h); higher = more inhibition; extreme values may be limits of the assay
Test [1] deals with 639-V (Bladder Carcinoma). In short, it runs like this:
(§1)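 Bliss excess equals the observed combination effect minus the expected value EA + EB − EA·EB, where EA and EB are the effects of each agent alone. Combination Emax is the second-highest inhibition within the matrix. Inhibition was scaled from CellTiter-Glo 2.0 luminescence, with 0 set by vehicle wells and 1 by blank wells, after 72 hours of two-drug dosing of cells plated in 1536-well plates.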

For test [2], the system named is 8305C (Thyroid Gland Carcinoma). In short, it runs like this:
as §1

For test [3], the system named is CAL-54 (Kidney Carcinoma). In short, it runs like this: as §1
For test [4], the system named is CTB-1 (B-Cell Non-Hodgkin's Lymphoma). In short, it runs like this:
as §1

Test [5] concerns HARA (Squamous Cell Lung Carcinoma). In short, it runs like this:
as §1

Test [6] concerns HDLM-2 (Hodgkin's Lymphoma). In short, it runs like this:
as §1

In test [7] the test system is K5 (Thyroid Gland Carcinoma). In short, it runs like this: as §1
Test [8] relates to LB771-HNC (Head and Neck Carcinoma). In short, it runs like this:
as §1

Test [9] concerns LU-139 (Small Cell Lung Carcinoma). In short, it runs like this:
as §1

Test [10] relates to MHH-PREB-1 (B-Cell Non-Hodgkin's Lymphoma). In short, it runs like this: as §1
For test [11], the system named is NB14 (Neuroblastoma). In short, it runs like this: as §1
Test [12] relates to NCI-H69 (Small Cell Lung Carcinoma). In short, it runs like this: as §1
The test system of test [13] is NCI-H747 (Colorectal Carcinoma). In short, it runs like this:
as §1

In test [14] the test system is OC-314 (Ovarian Carcinoma). In short, it runs like this: as §1
In test [15] the test system is OVCAR-8 (Ovarian Carcinoma). In short, it runs like this:
as §1

Test [16] concerns RKO (Colorectal Carcinoma). In short, it runs like this:
as §1

Test [17] has as its system RPMI-6666 (Non-Cancerous). In short, it runs like this: as §1
Test [18] has as its system SK-OV-3 (Ovarian Carcinoma). In short, it runs like this:
as §1

In test [19] the test system is SW1271 (Small Cell Lung Carcinoma). In short, it runs like this:
as §1

In test [20] the test system is SW626 (Colorectal Carcinoma). In short, it runs like this: as §1

As for `CC1(C)CCC(CN2CCN(c3ccc(C(=O)NS(=O)(=O)c4ccc(NCC5CCOCC5)c([N+](=O)[O-])c4)c(Oc4cnc5[nH]ccc5c4)c3)CC2)=C(c2ccc(Cl)cc2)C1` [Venetoclax] + C[C@@H]1COCCN1C2=NC(=NC(=C2)C3(CC3)[S@](=N)(=O)C)C4=C5C=CNC5=NC=C4 [AZD6738] (first compound max 1 µM, 7x7, partner max 10 µM), the “combination Emax” value in test [1] was found to be 0.479; in test [2], 0.681; in test [3], 0.768; in test [4], 0.836; in test [5] it was 0.804; in test [6], 0.683. Also, the “combination Emax” value in test [7] turned out to be 0.616; in test [8], 0.474; in [9] it was 0.636; in test [10] it was 0.795; in test [11], 1; in test [12] it was 0.618. For the same compound, the “combination Emax” value in test [13] amounted to 0.387; in test [14] it was 0.897; in test [15], 0.712; in [16] it was 0.869; in test [17] it was 0.971; in test [18], 0.573. Moreover, the entries for the “combination Emax” value in [19] and in test [20] were 0.612 and 0.638, respectively.

In the case of `CC1(C)CCC(CN2CCN(c3ccc(C(=O)NS(=O)(=O)c4ccc(NCC5CCOCC5)c([N+](=O)[O-])c4)c(Oc4cnc5[nH]ccc5c4)c3)CC2)=C(c2ccc(Cl)cc2)C1` [Venetoclax] + COc1cc(Nc2ncc3c(n2)-c2ccc(Cl)cc2C(c2c(F)cccc2OC)=NC3)ccc1C(=O)O [Alisertib] (first compound max 1 µM, 7x7, partner max 10 µM), the “combination Emax” value amounted to 0.752 in [1]; 0.627 in test [2]; 0.523 in test [3]; 0.75 in [4]; 0.787 in test [5]; 0.643 in [6]. The “combination Emax” value amounted to 0.841 in test [7]; 0.697 in test [8]; 0.738 in [9]; 0.199 in test [10]; 0.993 in test [11]; 0.837 in [12]. For the same compound, the “combination Emax” value came out at 0.419 in [13]; 0.504 in [14]; 0.487 in [15]; 0.487 in test [16]; 0.967 in [17]; 0.315 in test [18]. Moreover, the “combination Emax” value in [19] amounted to 0.326; in test [20], 0.314.

Turning to `CC1(C)CCC(CN2CCN(c3ccc(C(=O)NS(=O)(=O)c4ccc(NCC5CCOCC5)c([N+](=O)[O-])c4)c(Oc4cnc5[nH]ccc5c4)c3)CC2)=C(c2ccc(Cl)cc2)C1` [Venetoclax] + Cc1cc2ncnn2cc1Nc1ncc2c(n1)n(C1CCOCC1)c(=O)n2C [AZD7648] (first compound max 1 µM, 7x7, partner max 10 µM), the “combination Emax” value in test [1] was 0.244; in test [2], 0.385; in test [3], 0.256; in test [4] it was 0.358; in test [5], 0.572; in test [6], 0.431. Also, the “combination Emax” value in [7] was found to be 0.394; in test [8], 0.271; in [9] it was 0.439; in [10], 0.178; in test [11], 0.974; in test [12], 0.657. Besides, the “combination Emax” value in test [13] came to 0.414; in [14], 0.251; in test [15], 0.229; in [16], 0.275; in test [17] it was 0.959; in [18] it was 0.353. Besides, the “combination Emax” value in [19] came out at 0.202; in test [20], 0.136.

The record behind these values is the supplement of paper PMC11061612.
